Where a name gives a salt, the structure may show the parent alone.
Tests used:
Format in all cases: cell-based
[1] = tested on: IFN-α; test: Induction of Interferon-α using fresh human peripheral blood mononuclear cells (PBMCs); conditions: PBMC, three donors, 24 hr incubation, response as % of 2 μM resiquimod control, read-out: mean pEC50 for IFN-α (converted)
Protocol: (§1) Assay for the Induction of Interferon-α and TNF-α Using Fresh Human Peripheral Blood Mononuclear Cells (PBMCs)
(§2) Compounds were dispensed by at 100× the required concentration in DMSO (1 uL/well in a flat bottom 96-well cell culture plate). Each compound was assayed in duplicate for each donor. Each plate contained a dilution series of the TLR7/8 agonist resiquimod as standard and Column 11 contained 1 μL of 200 μM resiquimod (giving a 2 μM final concentration, used to define the approximate maximal response to resiquimod).
(§3) Blood samples from three human donors were collected into sodium heparin (10 U/ml). 25 mL volumes of whole blood were overlaid onto 15 mL Histopaque in Leucosep tubes which were centrifuged at 400 g for 30 min and the band at the plasma/histopaque interface carefully removed into a sterile 50 mL conical tube. The volume in the tube was made up to 50 mL with sterile DPBS (Dulbecco's phosphate buffered saline, —CaCl2/MgCl2) and centrifuged at 300 g for 10 min. The cell pellet was resuspended in 20 mL of media (RPMI 1640 (Low endotoxin) supplemented with 10% v/v foetal calf serum (FCS, low endotoxin) 100 U/mL penicillin G, 100 μg/mL streptomycin, 10 mM L-glutamine and 1× non-essential amino acids), and the cells counted using the Nucleoview 3000 (Chemometec, Via-1 Cassette). The PBMCs concentration was adjusted to give a final concentration of 2×10^6/mL and 100 uL of this cells suspension was added to wells containing 1 μL of diluted test compound.
(§4) The cell preparations were incubated for 24 hr (37° C., 95% air, 5% CO2) after which a sample of the supernatant was removed using the Biomek FX and assayed for both IFN-α and TNF-α using the MSD (Mesoscale Discovery) electrochemiluminescence assay platform. The IFN-α assay was carried out similarly to that described above. The TNF-α assay was carried out as per kit instructions (Cat No K111BHB).
(§5) Cytokine released was expressed as a percentage of the 2 μM resiquimod control (column 11). This percentage was plotted against compound concentration and the pEC50 for the response determined by non-linear least squares curve fitting. For the IFN-α responses generally a 4 parameter logistic model was selected. For the TNF-α responses where a clear maximum response was obtained (i.e. a well defined plateau in the response was observed) then a 4 parameter model was generally used. If the upper asymptote of the curve wasn't well defined then the curve fitting was generally constrained to a maximal response of 100% (i.e. to the response to 2 μM resiquimod) or to the response of the highest concentration tested if this was greater than the resiquimod response. Some curves were bell shaped for one or both cytokines and the cytokine data on the down slope of the bell shaped response (i.e. concentrations above those giving the maximal response) were generally excluded from the fit, usually with the exception of the concentration immediately above the peak response. Curve fitting thus concentrated on the up slope of the dose response curve.

[2] = tested on: IFN-α; test: Induction of Interferon-α using fresh human whole blood (WB); conditions: three donors, overnight incubation, response as % of 2 μM resiquimod control, read-out: mean pEC50 for IFN-α (converted)
Protocol: (§6) Assay for the Induction of Interferon-α and TNF-α Using Fresh Human Whole Blood (WB)
(§7) Compounds were prepared at 100× required concentration in DMSO in flat-bottom microtitre plates at a volume of 1.5 μL. Columns 1-10 contained a 1 in 4 serial dilution of the test compound. Included on each plate was a serial dilution of the TLR7/8 agonist resiquimod as a standard and Column 11 contained 1.5 μl of 200 μM resiquimod (giving a 2 μM final concentration, used to define the approximate maximal response to resiquimod). Each compound was assayed in duplicate for each donor.
(§8) Blood samples from three human donors were collected into sodium heparin (10 U/ml). 150 μl of whole Blood was dispensed into Col 1 to 11 of assay plates containing 1.5 μl of test compound or standard in DMSO. Plates were placed in an incubator overnight (37° C., 95% air, 5% CO2). Following the overnight incubation, plates were removed from the incubator & mixed on an orbital shaker for approximately 1 minute. 100 μl of 0.9% saline was added to each well and the plates mixed again on an orbital shaker. Plates were then centrifuged (2500 rpm, 10 mins), after which a sample of plasma was removed using a Biomek FX and assayed for both IFN-α and TNF-α using the MSD (Mesoscale Discovery) electrochemiluminescence assay platform. The IFN-α assay was carried out similarly to that described above. The TNF-α assay was carried out as per kit instructions (Cat No K111BHB).
as §5, with “IFN-α responses,” for “IFN-α responses”

[3] = tested on: TNF-α; test: Induction of TNF-α using fresh human peripheral blood mononuclear cells (PBMCs); conditions: PBMC, three donors, 24 hr incubation, response as % of 2 μM resiquimod control, read-out: mean pEC50 for TNF-α (converted)
Protocol: as §1, §2, §3, §4, §5

[4] = tested on: TNF-α; test: Induction of TNF-α using fresh human whole blood (WB); conditions: three donors, overnight incubation, response as % of 2 μM resiquimod control, read-out: mean pEC50 for TNF-α (converted)
Protocol: as §6, §7, §8
as §5, with “IFN-α responses,” for “IFN-α responses”

| SMILES | EC50 [1] | EC50 [2] | EC50 [3] | EC50 [4] |
| --- | --- | --- | --- | --- |
| Cc1nc(N)c2[nH]c(C)c(CCCCCCN3CCCCC3)c2n1 [Example 1, 2,6-Dimethyl-7-(6-(piperidin-1-yl)hexyl)-5H-pyrrolo[3,2-d]pyrimidin-4-amine] | 0.501 to 3.98 µM | ≥ 2 µM | ≥ 50.1 µM | ≥ 50.1 µM |
| Cc1nc(N)c2[nH]c(C)c(CCCCCN3CCCC3)c2n1 [Example 2, 2,6-Dimethyl-7-(5-(pyrrolidin-1-yl)pentyl)-5H-pyrrolo[3,2-d]pyrimidin-4-amine maleate] | 0.501 to 3.98 µM | ≥ 2 µM | ≥ 50.1 µM | ≥ 50.1 µM |
| Cc1nc(N)c2[nH]c(C)c(CCCCCN(CCO)CCO)c2n1 [Example 3, 2,2′-((5-(4-Amino-2,6-dimethyl-5H-pyrrolo[3,2-d]pyrimidin-7-yl)pentyl)azanediyl)diethanol formate] | 0.501 to 3.98 µM | ≥ 2 µM | ≥ 50.1 µM | ≥ 50.1 µM |
| COCCN(CCO)CCCCCCc1c(C)[nH]c2c(N)nc(C)nc12 [Example 5, 2-((6-(4-Amino-2,6-dimethyl-5H-pyrrolo[3,2-d]pyrimidin-7-yl)hexyl)(2-methoxyethyl)amino)ethanol] | 0.501 to 3.98 µM | ≥ 2 µM | ≥ 50.1 µM | ≥ 50.1 µM |
| COCCN(CCCCCCc1c(C)[nH]c2c(N)nc(C)nc12)CCOC [Example 6, 7-(6-(bis(2-Methoxyethyl)amino)hexyl)-2,6-dimethyl-5H-pyrrolo[3,2-d]pyrimidin-4-amine] | 0.501 to 3.98 µM | ≥ 2 µM | ≥ 50.1 µM | ≥ 50.1 µM |
| Cc1nc(N)c2[nH]c(C)c(CCCCCCNCCO)c2n1 [Example 7, 2-((6-(4-Amino-2,6-dimethyl-5H-pyrrolo[3,2-d]pyrimidin-7-yl)hexyl)amino)ethanol] | 0.501 to 3.98 µM | ≥ 2 µM | ≥ 50.1 µM | ≥ 50.1 µM |

Results, then the compound that gave them:

| EC50 [1] | EC50 [2] | EC50 [3] | EC50 [4] | SMILES |
| --- | --- | --- | --- | --- |
| 0.501 to 3.98 µM | ≥ 2 µM | ≥ 50.1 µM | ≥ 50.1 µM | Cc1nc(N)c2[nH]c(C)c(CCCCCCN(CCO)CCO)c2n1 [Example 4, 2,2′-((6-(4-Amino-2,6-dimethyl-5H-pyrrolo[3,2-d]pyrimidin-7-yl)hexyl)azanediyl)diethanol formate] |
| 0.501 to 3.98 µM | ≥ 2 µM | ≥ 50.1 µM | ≥ 50.1 µM | Cc1nc(N)c2[nH]c(C)c(CCCCCCN3C[C@H](O)C[C@H](O)C3)c2n1 [Example 8, (3R,5S)-1-(6-(4-amino-2,6-dimethyl-5H-pyrrolo[3,2-d]pyrimidin-7-yl)hexyl)piperidine-3,5-diol] |
| 0.501 to 3.98 µM | ≥ 2 µM | ≥ 50.1 µM | ≥ 50.1 µM | Cc1nc(N)c2[nH]c(C)c(CCCCCCN3C[C@H](O)C[C@@H](O)C3)c2n1 [Example 9, (3R,5R)-1-(6-(4-Amino-2,6-dimethyl-5H-pyrrolo[3,2-d]pyrimidin-7-yl)hexyl)piperidine-3,5-diol] |
|  | ≥ 2 µM |  | ≥ 50.1 µM | Cc1nc(N)c2[nH]c(C)c(CCCCCCN(C)C)c2n1 [Example 10, 7-(6-(Dimethylamino)hexyl)-2,6-dimethyl-5H-pyrrolo[3,2-]pyrimidin-4-amine] |
